The record followed here is ChEMBL document CHEMBL5465560, “Selectivity Literature for EUbOPEN Chemogenomic Library” (2024).

Assay [1] has as its target Mitogen-activated protein kinase kinase kinase 20 (Homo sapiens) (UniProt Q9NYL2). Conditions: at 10 µM.
The target of assay [2] is T1, Mitogen-activated protein kinase kinase kinase 3 (Homo sapiens) (UniProt Q99759).
T1 sequence (whole entry): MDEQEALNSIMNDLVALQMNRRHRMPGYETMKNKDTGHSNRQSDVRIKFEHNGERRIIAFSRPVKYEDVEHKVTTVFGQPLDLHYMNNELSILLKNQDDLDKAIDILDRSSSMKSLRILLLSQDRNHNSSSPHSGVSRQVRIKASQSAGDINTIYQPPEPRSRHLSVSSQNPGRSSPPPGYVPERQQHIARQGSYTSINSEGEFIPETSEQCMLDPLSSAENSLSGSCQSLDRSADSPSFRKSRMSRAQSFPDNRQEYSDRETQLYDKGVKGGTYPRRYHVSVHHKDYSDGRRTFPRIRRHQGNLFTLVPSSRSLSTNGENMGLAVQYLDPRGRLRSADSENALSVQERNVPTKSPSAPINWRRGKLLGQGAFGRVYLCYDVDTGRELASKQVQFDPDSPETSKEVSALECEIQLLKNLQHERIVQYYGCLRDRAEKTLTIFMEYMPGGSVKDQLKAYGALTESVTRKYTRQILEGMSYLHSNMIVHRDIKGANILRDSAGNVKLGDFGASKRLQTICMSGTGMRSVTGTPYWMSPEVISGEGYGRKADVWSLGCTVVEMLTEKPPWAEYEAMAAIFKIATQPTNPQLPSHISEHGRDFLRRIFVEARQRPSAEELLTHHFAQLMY
The assay can be described thus: Selectivity interaction (KinomeScan (DiscoverX)) EUB0000695a MAP3K3. As to conditions: at 100 nM.

In assay [3] the test system is Mast/stem cell growth factor receptor Kit (Homo sapiens), P10721 [D816H]. Description: (§1) Selectivity interaction (KinomeScan (DiscoverX)) EUB0000666a KIT. As to conditions: at 10 µM.
The subject of assay [4] is Mast/stem cell growth factor receptor Kit (Homo sapiens), P10721 [L576P]. The assay is described as §1. As to conditions: at 10 µM.
The test system of assay [5] is Mast/stem cell growth factor receptor Kit (Homo sapiens), P10721 [V559D,V654A]. The description is as §1. As to conditions: at 10 µM.
The subject of assay [6] is Mast/stem cell growth factor receptor Kit (Homo sapiens), P10721 [V559D,T670I]. The assay is described as §1. As to conditions: at 10 µM.
The subject of assay [7] is Mast/stem cell growth factor receptor Kit (Homo sapiens), P10721 [D816V]. Described as §1. As to conditions: at 10 µM.
The subject of assay [8] is Mast/stem cell growth factor receptor Kit (Homo sapiens), P10721 [V559D]. The description is as §1. Conditions: at 10 µM.
Assay [9] addresses Mast/stem cell growth factor receptor Kit (Homo sapiens, UniProt P10721). The assay is described as §1. Conditions: at 10 µM.
For assay [10], the target named is Vascular endothelial growth factor receptor 1 (Homo sapiens) (UniProt P17948). Description: Selectivity interaction (KinomeScan (DiscoverX)) EUB0000607a FLT1. Conditions: at 10 µM.
Assay [11] deals with Mitogen-activated protein kinase kinase kinase 11 (Homo sapiens) (UniProt Q16584). The assay can be described thus: Selectivity interaction (KinomeScan (DiscoverX)) EUB0000607a MAP3K11. Conditions: at 10 µM.
Assay [12] can be described thus: Selectivity interaction (ActivX KiNativ screen (kinase selectivity in THP-1 cell lysates)) EUB0000639a STLK6. Conditions: Selectivity number of off-targets 0; Selectivity number of targets 283; Source Knowledge https://pubmed.ncbi.nlm.nih.gov/28498658/; at 0.2 µM.
Assay [13] concerns the target T2, Dual specificity tyrosine-phosphorylation-regulated kinase 4 (Homo sapiens) (UniProt Q9NR20).
T2 sequence (whole entry): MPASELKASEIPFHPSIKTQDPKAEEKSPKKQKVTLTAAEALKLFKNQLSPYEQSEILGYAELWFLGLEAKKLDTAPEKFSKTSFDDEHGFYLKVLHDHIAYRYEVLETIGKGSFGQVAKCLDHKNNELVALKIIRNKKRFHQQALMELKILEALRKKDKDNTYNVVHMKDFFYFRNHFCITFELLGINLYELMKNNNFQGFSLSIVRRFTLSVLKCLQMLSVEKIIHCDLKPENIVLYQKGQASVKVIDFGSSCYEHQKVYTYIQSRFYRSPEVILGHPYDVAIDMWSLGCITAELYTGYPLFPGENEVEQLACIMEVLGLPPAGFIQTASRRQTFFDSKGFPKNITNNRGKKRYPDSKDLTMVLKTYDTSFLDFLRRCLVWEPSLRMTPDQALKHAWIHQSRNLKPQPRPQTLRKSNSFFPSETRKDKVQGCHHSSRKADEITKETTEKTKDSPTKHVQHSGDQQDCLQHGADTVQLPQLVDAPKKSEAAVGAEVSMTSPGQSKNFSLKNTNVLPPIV
The assay can be described thus: Selectivity interaction (ProQinase) EUB0000171b DYRK4.

In assay [14] the target is T3, Serine/threonine-protein kinase STK11 (Homo sapiens) (UniProt Q15831).
T3 sequence (whole entry): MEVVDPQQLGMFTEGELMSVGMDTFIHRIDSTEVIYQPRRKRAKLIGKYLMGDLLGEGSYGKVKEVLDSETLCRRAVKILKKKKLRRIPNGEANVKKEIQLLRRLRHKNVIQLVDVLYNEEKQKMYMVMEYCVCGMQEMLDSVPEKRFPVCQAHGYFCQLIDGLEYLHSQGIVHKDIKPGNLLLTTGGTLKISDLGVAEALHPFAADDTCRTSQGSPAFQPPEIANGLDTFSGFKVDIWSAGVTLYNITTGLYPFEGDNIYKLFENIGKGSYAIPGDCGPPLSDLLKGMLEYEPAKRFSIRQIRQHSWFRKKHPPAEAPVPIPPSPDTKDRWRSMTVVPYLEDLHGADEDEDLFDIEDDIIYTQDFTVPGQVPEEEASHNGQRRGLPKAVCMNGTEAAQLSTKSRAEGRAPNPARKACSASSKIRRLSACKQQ
The assay can be described thus: Selectivity interaction (KinomeScan (DiscoverX)) EUB0000655a STK11. As to conditions: at 10 µM.

In assay [15] the target is Tyrosine-protein kinase Fyn (Homo sapiens) (UniProt P06241). Description: Selectivity interaction (KinomeScan (DiscoverX)) EUB0000655a FYN. As to conditions: at 10 µM.
The target in assay [16] is Angiopoietin-1 receptor (Homo sapiens) (UniProt Q02763). Description: Selectivity interaction (KinomeScan (DiscoverX)) EUB0000618a TEK. Conditions: at 10 µM.
Assay [17] has as its target Eukaryotic translation initiation factor 2-alpha kinase 1 (Homo sapiens) (UniProt Q9BQI3). Description: Selectivity interaction (KinomeScan (DiscoverX)) EUB0000092b EIF2AK1. As to conditions: at 10 µM.
Assay [18] addresses Ribosomal protein S6 kinase alpha-2 (Homo sapiens) (UniProt Q15349). The assay can be described thus: Selectivity interaction (Millipore kinase profiler) EUB0000124b RPS6KA2. Conditions: at 10 µM.

Ribosomal protein S6 kinase alpha-2 (Homo sapiens), sequence (Q15349 whole entry): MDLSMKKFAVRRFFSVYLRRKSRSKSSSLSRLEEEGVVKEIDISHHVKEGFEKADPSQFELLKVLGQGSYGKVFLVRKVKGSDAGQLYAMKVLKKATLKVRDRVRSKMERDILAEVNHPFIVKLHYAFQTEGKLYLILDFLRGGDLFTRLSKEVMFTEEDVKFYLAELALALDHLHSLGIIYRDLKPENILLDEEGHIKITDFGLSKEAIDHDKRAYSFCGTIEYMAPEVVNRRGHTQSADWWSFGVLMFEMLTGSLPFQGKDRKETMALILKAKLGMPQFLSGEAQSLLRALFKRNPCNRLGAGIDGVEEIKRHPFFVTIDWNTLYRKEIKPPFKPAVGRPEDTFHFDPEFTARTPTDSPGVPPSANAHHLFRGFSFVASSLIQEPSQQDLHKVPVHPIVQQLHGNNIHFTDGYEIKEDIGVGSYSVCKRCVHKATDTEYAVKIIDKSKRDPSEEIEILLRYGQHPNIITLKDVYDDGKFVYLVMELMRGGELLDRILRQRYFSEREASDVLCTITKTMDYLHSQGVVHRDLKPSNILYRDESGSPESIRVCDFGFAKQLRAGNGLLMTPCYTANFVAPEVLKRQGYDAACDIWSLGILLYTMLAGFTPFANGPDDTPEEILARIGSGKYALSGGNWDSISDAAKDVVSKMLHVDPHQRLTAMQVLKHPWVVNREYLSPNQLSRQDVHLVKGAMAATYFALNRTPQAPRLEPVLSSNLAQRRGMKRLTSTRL
Mast/stem cell growth factor receptor Kit, sequence (P10721 whole entry): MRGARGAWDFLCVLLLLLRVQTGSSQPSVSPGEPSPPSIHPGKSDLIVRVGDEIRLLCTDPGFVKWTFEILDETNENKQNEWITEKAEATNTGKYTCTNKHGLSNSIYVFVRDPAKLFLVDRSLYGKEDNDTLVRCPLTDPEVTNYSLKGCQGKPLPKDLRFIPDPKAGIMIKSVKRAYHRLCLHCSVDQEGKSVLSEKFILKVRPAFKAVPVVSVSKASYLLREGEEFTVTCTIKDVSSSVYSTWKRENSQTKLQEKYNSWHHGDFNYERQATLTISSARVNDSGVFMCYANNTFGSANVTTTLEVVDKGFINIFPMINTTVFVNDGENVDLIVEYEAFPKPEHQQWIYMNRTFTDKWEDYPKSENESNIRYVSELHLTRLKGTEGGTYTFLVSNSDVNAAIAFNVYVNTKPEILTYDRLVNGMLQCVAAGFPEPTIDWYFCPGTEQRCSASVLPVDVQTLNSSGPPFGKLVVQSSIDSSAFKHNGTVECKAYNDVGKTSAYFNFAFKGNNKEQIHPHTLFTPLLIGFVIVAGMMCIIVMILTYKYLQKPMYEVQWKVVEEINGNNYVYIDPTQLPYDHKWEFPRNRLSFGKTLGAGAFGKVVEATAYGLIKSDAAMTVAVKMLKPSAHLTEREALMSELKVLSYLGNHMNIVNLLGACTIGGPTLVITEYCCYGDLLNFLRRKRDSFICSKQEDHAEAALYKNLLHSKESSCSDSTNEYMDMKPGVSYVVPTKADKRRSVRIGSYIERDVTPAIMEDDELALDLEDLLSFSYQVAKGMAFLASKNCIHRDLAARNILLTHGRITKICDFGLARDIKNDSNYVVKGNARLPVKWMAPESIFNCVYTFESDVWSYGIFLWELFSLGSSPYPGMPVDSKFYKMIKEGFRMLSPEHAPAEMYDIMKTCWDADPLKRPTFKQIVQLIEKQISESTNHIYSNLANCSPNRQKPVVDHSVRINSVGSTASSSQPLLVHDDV
Mast/stem cell growth factor receptor Kit (Homo sapiens), P10721 [D816H], sequence (P10721 whole entry D816H): as the sequence (P10721 whole entry) above, with D816H counted along it
Tyrosine-protein kinase Fyn (Homo sapiens), sequence (P06241 2-537 limits assumed): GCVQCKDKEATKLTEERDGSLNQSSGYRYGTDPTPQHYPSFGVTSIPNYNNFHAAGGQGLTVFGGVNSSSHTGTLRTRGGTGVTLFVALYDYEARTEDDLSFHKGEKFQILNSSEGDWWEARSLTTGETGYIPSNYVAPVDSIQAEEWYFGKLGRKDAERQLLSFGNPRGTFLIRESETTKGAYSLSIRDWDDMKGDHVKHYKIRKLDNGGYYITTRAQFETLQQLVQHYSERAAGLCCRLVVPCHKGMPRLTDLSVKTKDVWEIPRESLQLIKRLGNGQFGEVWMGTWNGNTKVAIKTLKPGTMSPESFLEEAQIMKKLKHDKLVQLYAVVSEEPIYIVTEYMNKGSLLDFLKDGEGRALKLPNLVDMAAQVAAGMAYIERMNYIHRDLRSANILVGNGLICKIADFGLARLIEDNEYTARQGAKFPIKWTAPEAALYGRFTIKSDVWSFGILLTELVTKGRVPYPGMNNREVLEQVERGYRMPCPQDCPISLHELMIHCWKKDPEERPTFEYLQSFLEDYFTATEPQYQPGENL
Mast/stem cell growth factor receptor Kit (Homo sapiens), P10721 [V559D,V654A], sequence (P10721 whole entry V559D/V654A): as the sequence (P10721 whole entry) above, with V559D, V654A counted along it
Mitogen-activated protein kinase kinase kinase 20 (Homo sapiens), sequence (Q9NYL2 2-800 limits assumed): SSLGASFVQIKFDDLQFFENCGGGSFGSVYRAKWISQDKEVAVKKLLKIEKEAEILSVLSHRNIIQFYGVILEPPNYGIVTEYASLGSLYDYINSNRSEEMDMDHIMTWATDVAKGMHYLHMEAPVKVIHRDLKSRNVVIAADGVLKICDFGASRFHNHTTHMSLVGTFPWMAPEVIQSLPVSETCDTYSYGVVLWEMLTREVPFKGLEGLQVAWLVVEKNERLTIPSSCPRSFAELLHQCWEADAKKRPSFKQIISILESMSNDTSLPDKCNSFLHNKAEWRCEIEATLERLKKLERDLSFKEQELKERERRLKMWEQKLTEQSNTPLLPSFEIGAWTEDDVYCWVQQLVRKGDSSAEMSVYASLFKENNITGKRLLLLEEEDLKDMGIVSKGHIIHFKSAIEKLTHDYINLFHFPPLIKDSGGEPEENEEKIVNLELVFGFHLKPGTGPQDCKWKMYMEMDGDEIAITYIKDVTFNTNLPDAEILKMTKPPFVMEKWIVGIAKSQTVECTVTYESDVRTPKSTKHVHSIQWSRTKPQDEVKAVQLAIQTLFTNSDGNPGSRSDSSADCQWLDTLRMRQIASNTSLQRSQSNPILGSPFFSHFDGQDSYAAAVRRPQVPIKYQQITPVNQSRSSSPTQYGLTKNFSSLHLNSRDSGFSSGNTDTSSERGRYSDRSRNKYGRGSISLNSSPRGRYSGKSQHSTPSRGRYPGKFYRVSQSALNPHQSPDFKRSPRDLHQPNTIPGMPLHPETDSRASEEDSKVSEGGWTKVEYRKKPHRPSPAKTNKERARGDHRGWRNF

Regarding `CCN(CC)CCCCNc1ncc2cc(-c3cc(OC)cc(OC)c3)c(NC(=O)NC(C)(C)C)nc2n1`, in assay [1], the % of control stood at 100%.
Compound `Cc1cc(F)c(C(=O)Nc2cccc(-c3nncn3C(C)C)n2)cc1-n1cnc(C2CC2)c1` registered a % of control in [2] of 93%.
For the compound `O=C(NOC[C@H](O)CO)c1ccc(F)c(F)c1Nc1ccc(I)cc1F`, the % of control in assay [3] was found to be 91%; in assay [4] it was 75%; in [5], 100%; in [6], 90%; in [7], 87%; in assay [8], 74%. Moreover, the % of control in assay [9] turned out to be 92%.
For `CNC(=O)Nc1ccc(-c2nc(N3CC4CCC(C3)O4)c3cnn(C4CCC5(CC4)OCCO5)c3n2)cc1`, the % of control in [10] was 92%; in assay [11], 100%.
As to `CC[C@@H]1[C@H](F)C(=O)N[C@@H]1COc1nccc2cc(C(N)=O)c(OC)cc12` [ZIMLOVISERTIB], the “% of inhibition” value in [12] worked out at 7.4%.
In the case of `C=CC(=O)Nc1cccc(C(=O)Nc2ccc(Nc3cc(-c4[nH]c(SC)nc4C)ccn3)cc2)c1`, the % of control in assay [13] (at 1 µM) was 90%; in [13] (at 5 µM) it was 84%.
Take `CN(C)CCOc1ccc(-c2nc(-c3ccncc3)c(-c3ccc4c(c3)CC/C4=N\O)[nH]2)cc1`: the values for the % of control in assay [14] and in assay [15] were 88% and 79%, respectively.
Regarding `O[C@H]1CC[C@H](Nc2ncc3nc(Nc4c(F)cc(F)cc4F)n([C@H]4CCOC4)c3n2)CC1`, the % of control in [16] came out at 100%.
In assay [17], `CCC(=O)N1CCN(c2ccc(-n3c(=O)ccc4cnc5ccc(-c6cnc7ccccc7c6)cc5c43)cc2C(F)(F)F)CC1` showed a % of control of 57%.
Turning to `CC(=O)Nc1cccc(-n2c(=O)n(C3CC3)c(=O)c3c(Nc4ccc(I)cc4F)n(C)c(=O)c(C)c32)c1`, in [18], the % of control worked out at 102%.
